“And” between values parts separate entries of the source, which are not always exact repeats. Equal values may be shown once. Read-outs that look alike come from different tables or passages of the source.
Experiments:
[1] = system: serum proteins; assay: Amerlex free T4 radioimmunoassay: Bo value with added blocking agent; format: binding
[2] = biological target: T1, thyroxine binding globulin (TBG) (Homo sapiens, UniProt P05543); settings: in body fluids; cited from earlier work
T1 sequence (P05543 21-415): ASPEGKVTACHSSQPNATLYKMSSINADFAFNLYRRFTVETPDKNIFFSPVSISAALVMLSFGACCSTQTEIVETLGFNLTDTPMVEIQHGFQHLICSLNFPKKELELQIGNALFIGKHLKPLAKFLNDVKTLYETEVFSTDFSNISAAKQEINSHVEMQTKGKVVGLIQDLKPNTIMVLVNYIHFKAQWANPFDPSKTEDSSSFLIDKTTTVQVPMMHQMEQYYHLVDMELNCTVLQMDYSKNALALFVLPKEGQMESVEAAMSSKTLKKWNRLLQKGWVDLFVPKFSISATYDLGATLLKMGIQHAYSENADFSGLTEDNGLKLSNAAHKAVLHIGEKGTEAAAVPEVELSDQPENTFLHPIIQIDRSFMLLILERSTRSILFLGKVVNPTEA

[3] = system: natural protein binders; settings: in body fluids; cited from earlier work
[4] = biological target: thyroxine binding prealbumin (TBPA) (Homo sapiens, UniProt P02766); settings: in body fluids; cited from earlier work
[5] = biological target: albumin (Alb) (Homo sapiens, UniProt P02768); settings: cited from earlier work
albumin (Alb), sequence (P02768 25-609): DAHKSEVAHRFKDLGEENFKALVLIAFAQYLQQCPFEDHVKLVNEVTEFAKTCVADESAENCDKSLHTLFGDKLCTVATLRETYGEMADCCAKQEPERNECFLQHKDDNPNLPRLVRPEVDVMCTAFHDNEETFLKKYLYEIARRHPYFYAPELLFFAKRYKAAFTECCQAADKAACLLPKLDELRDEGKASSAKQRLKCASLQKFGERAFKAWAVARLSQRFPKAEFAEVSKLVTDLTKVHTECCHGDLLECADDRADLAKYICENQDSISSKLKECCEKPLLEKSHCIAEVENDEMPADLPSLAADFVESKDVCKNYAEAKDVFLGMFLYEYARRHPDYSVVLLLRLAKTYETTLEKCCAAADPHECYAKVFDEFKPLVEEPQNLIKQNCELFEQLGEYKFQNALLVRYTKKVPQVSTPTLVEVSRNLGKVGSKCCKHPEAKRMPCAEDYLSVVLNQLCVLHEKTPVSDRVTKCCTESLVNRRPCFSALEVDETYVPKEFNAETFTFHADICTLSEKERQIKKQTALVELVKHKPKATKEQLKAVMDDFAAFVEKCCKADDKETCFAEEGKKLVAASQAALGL

[6] = blocking agent 10^-3 M, no addition: 67.7
[7] = blocking agent 10^-2 M, no addition: 67.7

## O=[N+]([O-])c1ccc(O)c([N+](=O)[O-])c1 [2,4-dinitrophenol]
[1]; [6]
  Bo (% tracer bound): 60.0%

## O=C(O)c1c(O)cccc1O [Gamma resorcylate, sodium gamma-resorcylate (2,6-dihydroxybenzoate)]
[1]; [7]
  Bo (% tracer bound): 51.6%
[1]; [6]
  Bo (% tracer bound): 70.3%

## O=C(O)c1cc(O)ccc1O [Gentisate, sodium gentisate (2,5-dihydroxybenzoate)]
[1]; [7]
  Bo (% tracer bound): 71.8%
[1]; [6]
  Bo (% tracer bound): 70.5%

## O=C(O)c1cc(S(=O)(=O)O)ccc1O [SSA, 5-sulphosalicylic acid]
[1]; SSA 1x10^-2 M, no SSA: 65
  Bo (% tracer bound): 82.5%
[1]; SSA 1x10^-3 M, no SSA: 65
  Bo (% tracer bound): 74%
[1]; SSA 2x10^-2 M, T4-analogue tracer bound to antiserum at zero T4, no SSA: 65
  Bo (% tracer bound): 82%
[1]; SSA 2x10^-3 M, no SSA: 65
  Bo (% tracer bound): 80%
[1]; SSA 2x10^-4 M, no SSA: 65
  Bo (% tracer bound): 68%
[1]; SSA 5x10^-3 M, no SSA: 65
  Bo (% tracer bound): 78%
[1]; SSA 5x10^-4 M, no SSA: 65
  Bo (% tracer bound): 72%
[1]; SSA 5x10^-5 M, no SSA: 65
  Bo (% tracer bound): 66%

## NC(=O)c1ccccc1O [Salicylamide, salicylamide]
[1]; [7]
  Bo (% tracer bound): 43.0%
[1]; [6]
  Bo (% tracer bound): 67.5%

## O=C([O-])c1ccccc1O.[Na+] [Salicylate, sodium salicylate]
[1]
  Bo (% tracer bound): 72.6% and 69.5%

## N[C@@H](Cc1cc(I)c(Oc2ccc(O)c(I)c2)c(I)c1)C(=O)O [T3, Tri-iodothyronine]
[2]
  share of the bound fraction bound to TBG: 60%
[3]
  in free form: 0.3%
[4]
  share of the bound fraction bound to TBPA: 15%
[5]
  share of the bound fraction bound to Alb: 25%

## N[C@@H](Cc1cc(I)c(Oc2cc(I)c(O)c(I)c2)c(I)c1)C(=O)O [T4, Thyroxine]
[2]
  share of the bound fraction bound to TBG: 70%
[3]
  bound to natural protein binders: 99.97%
[4]
  share of the bound fraction bound to TBPA: 20%

— patent EP0155104A2, “Free analyte assay” (priority 1984, dated 1985)
